Experimental data as given in US9359373B1, “Lipophilic N-substituted norcantharimide derivatives and uses thereof” (priority 2014, dated 2016).

What was measured:
[1] = tested on: human leukemia cells (Jurkat T cells); assay: Cell viability (CCK-8), PMAI activated leukemia Jurkat T cells model; type: cell-based; details: 24 hours (NC15: 24 and 48 hours), FIG. 4, FIG. 6
Experimental: The cell viability assays were performed in 96-well plates. The 100 μl of cell suspensions (NHL or Jurkat T cells, 5×10^3 cells/well, serum-free medium) were inoculated in the wells and the plates were pre-incubated in the incubator for 24 hours (pre-incubated for 22 hours and stimulated with PMA 5 ng/ml plus ionomycin 250 ng/ml for 2 hours in PMAI-treated groups). Then, various concentrations of norcantharidin (0, 2, 4, 15, 30 and 60 μM) or NOC15 (0, 0.25, 0.5, 1, 2 and 4 μM) were added into the culture media in the wells. After 24 hours of incubation, the cell viability of NHL and Jurkat T cells was measured by cell counting kit-8 (CCK-8, Sigma). The half maximal inhibitory concentrations (IC50) of norcantharidin and NOC15 on Jurkat T cells and NHL cells were calculated.
In this example, a model of phorbol 12-myristate 13-acetate plus ionomycin (PMAI) activated leukemia Jurkat T cells model was employed to investigate the effects of the NOC15 on human leukemia cells (Jurkat T cells) and human lymphoblast cells (NHL).

[2] = tested on: HepG2 cells; assay: Hoechst 33528 staining, nuclear morphological changes; type: cell-based, human; details: 40 μM, 48 hours, FIG. 1
Experimental: Staining with Hoechst 33528 was performed according to the method described previously (Huang et al., Cytotechnology 2009, 59, 201-208). Briefly, cells were treated with 40 μM norcantharidin, NOC15, or NC15 for 48 hours, then washed with PBS saline and stained with Hoechst 33528 (Sigma, St. Louis, Mo., USA) at a final concentration of 10 μg/mL. The slides were examined under a fluorescence microscope. Cells with a small nucleus, a high fluorescence intensity (due to chromatin condensation) or nuclear fragmentation were considered apoptotic.
To further investigate the role of apoptosis in the cytotoxicity of NOC15 and NC15, HepG2 cells were incubated with compound 2, NOC15 and NC15, respectively, for 48 hours; then were stained with Hoechst 33528 and examined by fluorescence microscope for any topical morphological changes.

[3] = tested on: SW480; assay: MTT cell viability, SW480; type: cell-based, human; details: Homo sapiens, SW480, 48 hours, Mean ± SD, read-out: Growth Inhibition IC50 SW480
Experimental: Cell lines used in the present disclosure include human liver carcinonoma cell line HepG2, human bladder carcinoma cell line BFTC905, human colon carcinoma cell lines HT29 and SW480, and human leukemia cell lines HL60 and Jurkat T, and mouse lymphocytic leukemia cell line L1210. Each cell lines were cultured and maintained in Dulbecco's modified Eagle media (DMEM) or RPMI 1640 medium supplemented with 10% heat inactivated fetal bovine serum (FBS), 1% penicillin/streptomycin, in 5% CO2195% air at 37° C.
The absorbance of the solution at 540 nm was measured by spectrophotometer. The IC50 values were defined as the drug concentration that inhibit 50% cell growth by setting the viability of untreated cells as 100%. Values were represented as the mean±SD from at least 3 independent experiments.
Effects of the compounds of formula (I) of this disclosure, specifically, NOC15 and NC 15, on HepG2 cells (liver carcinoma), BFTC905 (bladder carcinoma), HT29 (colon carcinoma), SW480 (colon carcinoma) and HL60 (leukemia) were assessed by cell viability analysis in accordance with procedures described above, in which compound 2, and other known anti-cancer agents including 5-FU, cisplatin and doxorubicin were respectively used as positive controls.

[4] = Body weight of treated animals; type: in vivo, mice; details: 18 mg/Kg, compared with healthy normal control, FIG. 11
Experimental: (§1) To inoculate tumor, L1210 cells (1×10^6 cells per injection) were injected either subcutaneously or intraperitoneally to lab animals to generate tumors on day 1. After 7 days, NOC15 or NC15 (diluted in normal saline) was administered intra-peritoneally at a dose of 18 mg/kg every day for 7 days. The average body weight (BW) of the animals was measured daily.
(§2) Mice were inoculated with L1210 tumor cells in accordance with the procedures described in the section of “Materials and Methods.” For in vivo therapy, animals were given 18 mg/Kg NOC15 or NC15 by intra-peritoneal route, for a period of at least 7 days. Tumor size, animal body weight, respective weights of liver and spleen, as well as the white blood cell count of each animal were then measured respectively at the indicated time. Results are depicted in FIGS. 8 to 11, respectively.

[5] = tested on: L1210 cells; assay: Syngeneic L1210 tumor in vivo therapy; design: species or system DBA/2 mice
Experimental: The DBA/2 mice (about 7 weeks old, 18-22 g) were obtained from BioLASCO Taiwan Co., Ltd. All mice were housed in specific pathogen-free condition with ad libitum access to water and laboratory chow. A solution of L1210 cells was injected into the subcutaneous tissue to establish a syngeneic tumor. Alternatively, the L1210 cells was injected peritoneally. All animal experiments were performed in accordance with the guidelines of the Animal Welfare Committee of Taipei Veterans General Hospital (Taiwan, R.O.C.).
as §1
After treatment, mice were sacrificed, and their tumors, livers and spleens were harvested and weighted, respectively; and white blood cells (WBC) counts were also measured.
as §2

## CC(C)=CCCC(C)=CCCC(C)=CCN1C(=O)C2C3CCC(O3)C2C1=O (stereo not drawn) [Compound 18, N-farnesyl-7-oxabicyclo[2.2.1]heptane-2,3-dicarboximide]
[1]
  cytotoxicity to leukemia Jurkat T cells: toxic
[2]
  nuclear morphological changes (apoptosis features): Significant morphological features of apotosis
[3]
  IC50: 33.1 ± 1 µM
[4]
  total body weight along the course of treatment: eventually brought the animal body weight to the level same as the control
[5]; IP-inoculated tumor, 18 mg/kg i.p., FIG. 9B
  weight of liver: improved significantly
[5]; IP-inoculated tumor, 18 mg/kg i.p., FIG. 9C
  weight of spleen: improved significantly
[5]; SC-inoculated tumors, 18 mg/kg i.p. daily, FIG. 8A
  increase in life span: about 40%
[5]; SC-inoculated, 18 mg/kg i.p., FIG. 9A
  weight of s.c. tumor: Significant reduction
[5]; day 14, SC- or IP-injected L1210, 18 mg/kg i.p., FIG. 10
  white blood cell (WBC) counts: significant reductions
